Assay results from ChEMBL document CHEMBL1212848 (Bioorg Med Chem, 2010).
The source made the active and inactive calls. The calls are words filed in the database; no cut-off is given here.

Legend:
HeLa = assay: Cellular uptake in human HeLa cells assessed as retention time at 2 uM after 48 hrs by HPLC-MS analysis; assay type: ADME, cell-based
MCF7 [1] = assay: Cytotoxicity against human MCF7 cells assessed as reduction of cell proliferation at 1 nM to 1 uM after 96 hrs by MTT assay; assay type: functional, cell-based
MCF7 [2] = assay: Cytotoxicity against human MCF7 cells assessed as reduction of cell proliferation at 6 uM after 96 hrs by MTT assay; assay type: functional, cell-based
Cancer cell lines [3] = assay: Cytotoxicity against human cervical cancer cells assessed as reduction of [3H]thymidine incorporation at 2 uM after 24 to 48 hrs by scintillation counting; assay type: functional, cell-based
Cancer cell lines [4] = assay: Cytotoxicity against human cervical cancer cells assessed as reduction of [3H]thymidine incorporation at 5 nM after 24 to 48 hrs by scintillation counting; assay type: functional, cell-based
Estrogen receptor = molecular target: T1, Estrogen receptor (Homo sapiens, UniProt P03372); assay: biochemical
T1 sequence (P03372 whole entry): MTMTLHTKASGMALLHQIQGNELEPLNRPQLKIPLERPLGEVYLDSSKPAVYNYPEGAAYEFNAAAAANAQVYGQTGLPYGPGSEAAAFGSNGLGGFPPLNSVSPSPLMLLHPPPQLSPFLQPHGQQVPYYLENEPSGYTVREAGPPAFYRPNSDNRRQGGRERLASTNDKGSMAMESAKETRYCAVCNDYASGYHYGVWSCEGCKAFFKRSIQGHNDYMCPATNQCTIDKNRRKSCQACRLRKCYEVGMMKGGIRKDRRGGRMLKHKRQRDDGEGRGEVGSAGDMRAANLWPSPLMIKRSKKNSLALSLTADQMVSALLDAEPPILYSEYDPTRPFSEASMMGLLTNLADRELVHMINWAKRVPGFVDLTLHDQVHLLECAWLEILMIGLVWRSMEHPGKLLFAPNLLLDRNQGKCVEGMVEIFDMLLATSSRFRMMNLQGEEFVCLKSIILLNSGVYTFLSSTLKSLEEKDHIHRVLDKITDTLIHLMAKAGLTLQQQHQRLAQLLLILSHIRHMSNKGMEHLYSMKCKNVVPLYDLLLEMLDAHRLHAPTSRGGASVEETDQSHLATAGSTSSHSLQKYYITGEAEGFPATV
Description: Displacement of [2,4,6,7-3H]estradiol from human ERalpha expressed in HeLa cells after 18 hrs by liquid scintillation counting

[5] = molecular target: T2, Estrogen receptor (Homo sapiens) (UniProt P03372); assay: Agonist activity at human ERalpha expressed in human HeLa cells coexpressing ERE-E1b-Luc assessed as transcriptional activation after 48 hrs by luciferase reporter gene assay relative to estradiol; assay type: functional, cell-based
T2 sequence (whole entry): T1 sequence (P03372 whole entry)

Compound	Time (HeLa)	Activity (MCF7 [1])	Activity (MCF7 [2])	Activity (Cancer cell lines [3])	Activity (Cancer cell lines [4])	Ki (Estrogen receptor)	Activity [5]
CCCC[N+](C)(C)CCOc1ccc(/C(=C(/CC)c2ccccc2)c2ccccc2)cc1.[Br-] [TAMOXIFEN BUTYL BROMIDE]	10 min	inactive	Active	inactive	Active	13 nM	–
CC/C(=C(\c1ccccc1)c1ccc(OCC[N+](C)(C)C)cc1)c1ccccc1.[I-] [TAMOXIFEN METHYL IODIDE]	5 min	inactive	Active	–	–	46.3 nM	–
CC/C(=C(\c1ccccc1)c1ccc(OCCN(C)C)cc1)c1ccccc1 [TAMOXIFEN]	9 min	inactive	Active	–	–	–	–
CC/C(=C(\c1ccccc1)c1ccc(OCC[N+](C)(C)C(C)C)cc1)c1ccccc1.[Br-] [TAMOXIFEN ISOPROPYL BROMIDE]	10 min	inactive	Active	inactive	Active	25.4 nM	50%
CCC[N+](C)(C)CCOc1ccc(/C(=C(/CC)c2ccccc2)c2ccccc2)cc1.[Br-] [TAMOXIFEN PROPYL BROMIDE]	9 min	inactive	Active	–	–	–	–
CC/C(=C(\c1ccccc1)c1ccc(OCC[N+](C)(C)CC)cc1)c1ccccc1.[Br-] [TAMOXIFEN ETHYL BROMIDE]	8 min	inactive	Active	–	–	13.7 nM	–
